Read-outs that look alike come from different tables or passages of the source.
Key:
HIV [1] = experiment: microbe, parasite or virus in culture; conditions: Human immunodeficiency virus 1, read-out: LHIV IC50 value with 40% human serum
HIV [2] = conditions: McCallister et al. 2008 poster; cited from earlier work
HIV [3] = system: HIV
[4] = system: NL4-3 strain with V370A site directed mutant polymorphism; experiment: microbe, parasite or virus in culture; format: cell-based, HIV-1
HIV NL4-3 wt = experiment: microbe, parasite or virus in culture; format: cell-based
[5] = Human immunodeficiency virus 1, NL43, Consensus Clade B Sp1 Genotype, read-out: MT4 NL. wt* EC50
[6] = Human immunodeficiency virus 1, NL43, HIV MT4 Antiviral Cell Assay of Example 84, read-out: EC50 NL4-3 wt

SMILES: C=C(C)[C@@H]1CC[C@]2(C(=O)O)CC[C@]3(C)[C@H](CC[C@@H]4[C@@]5(C)CC[C@H](OC(=O)CC(C)(C)C(=O)O)C(C)(C)[C@@H]5CC[C@]43C)[C@@H]12 [Bevirimat]
- IC50 (HIV [1]): 3880 nM
- Cmin target (HIV [2]): > 20000 ng/mL
- fold shift in the IC50 value, LHIV assay, 40% human serum (HIV [3]; addition of 40% human serum): 174.9 fold
- fold shift with human serum (HIV [3]; human protein shift, human serum (HS)): 157 fold

SMILES: CC(C)C1=C2[C@H]3CC[C@@H]4[C@@]5(C)CC[C@H](OC(=O)CC(C)(C)C(=O)O)C(C)(C)[C@@H]5CC[C@@]4(C)[C@]3(C)CC[C@@]2(C(=O)C(=O)NC2(c3ccc(Cl)cc3)CC2)CC1=O [Compound A]
- EC50 ([4]; Human immunodeficiency virus 1, NL43, read-out: MT4 NL. V370A EC50 (nM)): 16 nM
- EC50 (HIV NL4-3 wt; [5]): 14 nM

SMILES: CC(C)C1=C2[C@H]3CC[C@@H]4[C@@]5(C)CC[C@H](OC(=O)CC(C)(C)C(=O)O)C(C)(C)[C@@H]5CC[C@@]4(C)[C@]3(C)CC[C@@]2(C(=O)C(=O)N(CCN(C)C)Cc2ccc(Cl)cc2)CC1=O [Compound C]
- EC50 ([4]; Human immunodeficiency virus 1, NL43, read-out: MT4 antiviral assay V370A polymorphism EC50): 19 nM
- EC50 ([4]; Human immunodeficiency virus 1, NL43, read-out: V370A MT4 EC50): 19 nM
- EC50 ([4]; Human immunodeficiency virus 1, NL43, read-out: protein adjusted EC50 for the V370A polymorphic virus): 929 nM
- EC50 (HIV NL4-3 wt; Human immunodeficiency virus 1, NL43, Table 7, read-out: HIV w/t MT4 EC50): 6 nM
- EC50 (HIV NL4-3 wt; Human immunodeficiency virus 1, NL43, read-out: MT4 antiviral assay NL4-3 strain / HIV wild type EC50): 6 nM

SMILES: CC(C)C1=C2[C@H]3CC[C@@H]4[C@@]5(C)CC[C@H](OC(=O)CC(C)(C)C(=O)O)C(C)(C)[C@@H]5CC[C@@]4(C)[C@]3(C)CC[C@@]2(C(=O)C(=O)NC2(c3ncc(Cl)cn3)CC2)CC1=O [CompoundB]
- EC50 (HIV NL4-3 wt; [5]): 8 nM

SMILES: CC(C)C1=C2[C@H]3CC[C@@H]4[C@@]5(C)CC[C@H](OC(=O)CC(C)(C)C(=O)O)C(C)(C)[C@@H]5CC[C@@]4(C)[C@]3(C)CC[C@@]2([C@H](O)CNCc2cccc(Cl)c2)CC1=O [compound 37]
- EC50 (HIV NL4-3 wt; [6]): 26.9 nM

SMILES: CC(C)C1=C2[C@H]3CC[C@@H]4[C@@]5(C)CC[C@H](OC(=O)CC(C)(C)C(=O)O)C(C)(C)[C@@H]5CC[C@@]4(C)[C@]3(C)CC[C@@]2([C@@H](O)CNCc2cccc(Cl)c2)CC1=O [compound 38]
- EC50 (HIV NL4-3 wt; [6]): 5.2 nM

SMILES: CC(=O)O[C@H](CNCc1ccccc1)[C@@]12CC[C@]3(C)[C@H](CC[C@@H]4[C@@]5(C)CC[C@H](OC(=O)CC(C)(C)C(=O)O)C(C)(C)[C@@H]5CC[C@]43C)C1=C(C(C)C)C(=O)C2 [compound 53]
- EC50 (HIV NL4-3 wt; [6]): 6.2 nM

SMILES: CC(C)C1=C2[C@H]3CC[C@@H]4[C@@]5(C)CC[C@H](OC(=O)CC(C)(C)C(=O)O)C(C)(C)[C@@H]5CC[C@@]4(C)[C@]3(C)CC[C@@]2([C@@H](O)CNC2CCCCC2)CC1=O [compound 59]
- EC50 (HIV NL4-3 wt; [6]): 5.3 nM

Reference: US20150218142A1, “Derivatives of Betulin” (GlaxoSmithKline LLC, priority 2011, published 2015)
